Assays:
GR = biological target: T1, GR (Homo sapiens, UniProt P04150); test: Relative binding activity (RBA) at GR, dexamethasone = 100%; details: by Kaufmann
T1 sequence (P04150 1-777): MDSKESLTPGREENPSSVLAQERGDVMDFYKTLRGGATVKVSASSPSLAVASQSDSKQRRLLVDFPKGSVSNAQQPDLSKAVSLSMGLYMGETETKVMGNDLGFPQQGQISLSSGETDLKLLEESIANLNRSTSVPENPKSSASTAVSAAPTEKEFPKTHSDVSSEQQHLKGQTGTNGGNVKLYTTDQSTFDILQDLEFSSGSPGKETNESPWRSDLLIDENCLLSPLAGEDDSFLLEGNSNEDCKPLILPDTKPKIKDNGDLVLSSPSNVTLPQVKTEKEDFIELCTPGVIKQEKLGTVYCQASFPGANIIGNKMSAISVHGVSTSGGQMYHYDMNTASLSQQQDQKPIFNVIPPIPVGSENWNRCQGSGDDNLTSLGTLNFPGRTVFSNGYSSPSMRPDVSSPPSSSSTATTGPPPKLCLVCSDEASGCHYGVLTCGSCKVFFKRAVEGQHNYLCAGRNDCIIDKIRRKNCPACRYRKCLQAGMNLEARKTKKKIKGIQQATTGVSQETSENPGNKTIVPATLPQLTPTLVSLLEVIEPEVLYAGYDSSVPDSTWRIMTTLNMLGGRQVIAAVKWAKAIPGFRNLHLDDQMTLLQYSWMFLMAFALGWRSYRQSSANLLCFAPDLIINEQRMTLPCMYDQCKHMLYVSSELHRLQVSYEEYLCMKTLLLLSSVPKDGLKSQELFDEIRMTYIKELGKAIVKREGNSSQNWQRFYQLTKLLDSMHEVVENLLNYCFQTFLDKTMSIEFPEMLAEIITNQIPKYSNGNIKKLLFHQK

pregnant rats = test: Abortifacient activity in pregnant rats; format: in vivo, rat; details: s.c.; treatment days 5-7 of pregnancy, autopsy day 9; * SAS, probit procedure
From the text: (§1) The guinea pig is considered as relevant model of human gestation and parturition (Elger W, Fähnrich M, Beier S, Quing S S, Chwalisz K (1987). Endometrial and myometrial effects of progesterone antagonists in pregnant guinea pigs. Am J Obstet Gynecol 157: 1065-1074; Elger W, Neef G, Beier S, Fähnrich M, Gründel M, Heermann J, Malmendier A, Laurent D, Puri C P, Singh M M, Hasan S H, Becker H (1992). Evaluation of antifertility activities of antigestagens in animal model. In: Puri C P and Van Look P F A (eds), Current Concepts in Fertility Regulation and Reproduction. Wiley Eastern Limited, New Delhi, pp. 303-328; Elger W, Faehnrich M, Beier S, Qing S S, Chwalisz K (1986). Mechanism of action of progesterone antagonists in pregnant guinea pigs. Contraception 6: 47-62; Elger W, Chwalisz K, Faehnrich M, Hasan S H, Laurent D, Beier S, Ottow E, Neef G, Garfield R E (1990). Studies on labor-conditioning and labor-inducing effects of antiprogesterones in animal model. In: Garfield R E (eds), Norwell, pp. 153-175.) The mechanism of abortion of antiprogestins in this species is the initiation of labor and finally the expulsion of the conceptus. Abortifacient effects in the rat during very early pregnancy reflect inhibitory effects on nidation rather than initiation of uterine contractions. Studies in the rat model lead to “overestimation” of the potential of antiprogestins to terminate pregnancy in humans. Conversely, in the guinea pig model, irrespective of the antiprogestin doses, there were high rates of ongoing pregnancies similar to the situation in humans (Elger et al., Current Concepts in Fertility Regulation and Reproduction cited above). Furthermore, in both humans and guinea pigs, there is a strong synergism between antiprogestins and prostaglandins with respect the induction of labor (see the articles cited above and Elger W, Beier S (1983). Prostaglandine and Antigestagene für den Schwangerschaftsabbruch (Prostaglandins and antigestagens for pregnancy termination). German Patent DE 3337450 12; Van Look P, Bygdeman M (1989). Antiprogestational steroids: a new dimension in human fertility regulation. Oxford reviews of reproductive medicine 11: 2-60).

[1] = biological target: T2, PR (progesterone receptor) (Homo sapiens, UniProt P06401); test: Relative binding activity (RBA) at PR, progesterone = 100%; details: by Kaufmann
T2 sequence (P06401 1-933): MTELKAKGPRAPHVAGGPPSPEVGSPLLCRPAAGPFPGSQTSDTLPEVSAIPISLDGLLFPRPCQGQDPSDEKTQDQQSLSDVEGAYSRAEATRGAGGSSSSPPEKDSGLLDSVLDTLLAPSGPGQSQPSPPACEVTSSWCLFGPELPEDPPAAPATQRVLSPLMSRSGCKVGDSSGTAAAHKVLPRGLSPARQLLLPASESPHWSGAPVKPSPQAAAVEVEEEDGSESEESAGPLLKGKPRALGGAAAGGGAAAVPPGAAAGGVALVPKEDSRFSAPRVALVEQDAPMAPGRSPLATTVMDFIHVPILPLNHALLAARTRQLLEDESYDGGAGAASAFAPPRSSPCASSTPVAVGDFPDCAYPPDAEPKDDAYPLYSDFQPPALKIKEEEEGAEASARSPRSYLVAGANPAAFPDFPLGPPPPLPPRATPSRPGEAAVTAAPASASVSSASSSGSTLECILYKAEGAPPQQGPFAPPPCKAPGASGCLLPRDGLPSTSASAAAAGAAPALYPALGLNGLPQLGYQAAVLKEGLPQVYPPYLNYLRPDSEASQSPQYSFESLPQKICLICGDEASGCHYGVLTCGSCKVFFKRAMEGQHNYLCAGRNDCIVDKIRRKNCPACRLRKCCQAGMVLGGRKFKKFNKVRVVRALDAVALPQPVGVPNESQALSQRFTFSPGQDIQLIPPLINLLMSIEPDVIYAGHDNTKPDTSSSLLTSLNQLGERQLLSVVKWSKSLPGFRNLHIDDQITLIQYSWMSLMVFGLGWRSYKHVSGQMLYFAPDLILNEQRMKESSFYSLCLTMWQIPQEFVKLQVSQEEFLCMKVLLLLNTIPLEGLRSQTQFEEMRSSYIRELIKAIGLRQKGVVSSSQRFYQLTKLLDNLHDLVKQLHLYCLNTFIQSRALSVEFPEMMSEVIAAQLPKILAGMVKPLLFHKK

pregnant guinea pigs = test: Abortifacient / labor inducing activity in pregnant guinea pigs; format: in vivo, guinea pig; details: for abortifacient activity ED50, guinea pig: s.c., treatment day 43-44 of pregnancy, autopsy day 50
Protocol: In the guinea pig model which allows a good prediction of the effects in humans with respect to the abortifacient activity (Elger W, Beier S., Chwalisz K, Fähnrich M, Hasan S H, Henderson D, Neef G, Rohde R (1986): Studies on the mechanism of action of progesterone antagonists. J Steroid Biochem 25: 835-845) the mesoprogestins J 867, J 912, J 956, J 1042 lead up to 100 mg/kg/day to a maximal abortion rate of 20%.
as §1
Pregnant guinea pigs were treated on days 43 and 44 of pregnancy and observed until day 50 of gestation. For the effects of various treatments see table 1 and FIG. 2. It is typical for this model that expulsions occur with a delay of several days after treatment. It can be seen that Mesoprogestins have a much reduced abortifacient activity compared to RU486. […] The differences with respect to abortifacient activity seem qualitative ones. It is not possible to overcome the low abortifacient activity of a Mesoprogestin by the use of a higher dose.
FIG. 2 is graphs showing data on the assessment on cumulative rate of abortion until day 50 in guinea pigs treated on days 43 and 44 of pregnancy.

[2] = as described in DE 43 32 283 / DE 43 32 284; cited from earlier work
cyclic guinea pigs = details: cited from earlier work
[3] = as described in DE 43 32 283 / DE 43 32 284; cited from earlier work; remark: listed apart in the source
[4] = biological target: T3, progesterone receptor (PR) (Oryctolagus cuniculus, UniProt P06186); test: McPhail test, PR agonistic (progestagenic) activity in estradiol-primed juvenile rabbits; format: in vivo, rabbit; details: 4 days s.c. treatment, absence of progesterone
T3 construct: effects of PR-modulators in the uterus of estrogen primed immature rabbits (McPhail test); from tissue; host or cells: uterus (endometrium) of estradiol-primed juvenile rabbits, in vivo
T3 sequence (P06186 1-930): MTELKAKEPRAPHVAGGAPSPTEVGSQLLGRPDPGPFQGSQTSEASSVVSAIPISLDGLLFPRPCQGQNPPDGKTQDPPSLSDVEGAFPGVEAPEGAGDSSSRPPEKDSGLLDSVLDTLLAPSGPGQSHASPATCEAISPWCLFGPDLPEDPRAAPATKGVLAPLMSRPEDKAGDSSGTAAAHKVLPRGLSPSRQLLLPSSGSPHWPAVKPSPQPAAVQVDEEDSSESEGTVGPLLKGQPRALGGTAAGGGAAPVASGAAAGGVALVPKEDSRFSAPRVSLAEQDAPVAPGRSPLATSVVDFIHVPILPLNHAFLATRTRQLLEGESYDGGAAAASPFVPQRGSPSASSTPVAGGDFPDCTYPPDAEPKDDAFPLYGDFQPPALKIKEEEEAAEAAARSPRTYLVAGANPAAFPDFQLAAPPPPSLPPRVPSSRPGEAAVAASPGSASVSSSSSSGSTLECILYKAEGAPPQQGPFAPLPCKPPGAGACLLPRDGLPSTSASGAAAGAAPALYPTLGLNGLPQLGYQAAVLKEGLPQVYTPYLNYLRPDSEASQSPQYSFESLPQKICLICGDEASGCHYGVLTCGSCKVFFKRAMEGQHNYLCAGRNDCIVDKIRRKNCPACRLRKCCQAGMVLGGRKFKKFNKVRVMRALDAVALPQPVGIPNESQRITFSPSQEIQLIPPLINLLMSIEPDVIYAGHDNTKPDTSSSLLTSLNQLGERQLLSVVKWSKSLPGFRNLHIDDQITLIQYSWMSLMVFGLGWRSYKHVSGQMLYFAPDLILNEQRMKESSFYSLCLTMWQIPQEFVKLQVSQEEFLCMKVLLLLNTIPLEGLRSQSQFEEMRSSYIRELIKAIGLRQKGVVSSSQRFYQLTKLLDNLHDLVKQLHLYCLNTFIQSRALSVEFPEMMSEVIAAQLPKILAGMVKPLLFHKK
Protocol: In the classical bioassay, the McPhail test, assessing progestagenic and antiprogestagenic effects in rabbits (Selye H., Textbook of Endocrinology, 1947, pp. 345-346), progesterone produces a maximum McPhail score of 4 (by definition).
The PR antagonistic and agonistic properties of mesoprogestins were assessed in estrogen-primed rabbits in the McPhail test according to Selye (Textbook of Endocrinology, 1947, pp. 345-346).

endometriosis = details: women treated with danazol; cited from earlier work
menorrhagia = details: women with ovulatory menorrhagia, acute administration during bleeding; cited from earlier work

Structure (SMILES): COCC1(O)CCC2C3CCC4=CC(=O)CCC4=C3C(c3ccc(C=NO)cc3)CC21C (stereo not drawn) [J912, 4-[17β-Hydroxy-17α-(methoxymethyl)-3-oxoestra-4,9-dien-11β-yl]benzaldehyd-(1E)-oxim]
- RBA (%) GR (GR): 16%
- abortifacient activity ED50, rat (pregnant rats): 0.36 mg/animal/day
- RBA (%) PR [1]: 162%
- abortifacient activity ED50, guinea pig (pregnant guinea pigs): >100 mg/animal/day
- ranking of abortifacient activity (pregnant guinea pigs; treated on days 43 and 44 of pregnancy, observed until day 50): RU486>J956>J867, J912>J1042

Structure (SMILES): CCOC(=O)O/N=C/c1ccc([C@H]2C[C@@]3(C)[C@@H](CC[C@]3(COC)OC)[C@@H]3CCC4=CC(=O)CCC4=C32)cc1 [J 900, 4-[17β-Methoxy-17α-(methoxymethyl)-3-oxoestra-4,9-dien-11β-yl]benzaldehyd-(1E)-[O-(ethoxy)carbonyl]oxim]
- antiglucocorticoid activity compared to RU 486 [2]: markedly reduced
- uterine weights (cyclic guinea pigs): reduced uterine weights
- antiprogestagenic activity [3]: strong

Structure (SMILES): CC(=O)[C@H]1CC[C@H]2[C@@H]3CCC4=CC(=O)CC[C@]4(C)[C@H]3CC[C@]12C [Progesterone]
- dose at which progestagenic effect / endometrial transformation was observed [4]: ≥ 0.1 mg/rabbit
- dose of maximum effect [4]: 1 mg/rabbit
- maximum effect, McPhail score [4]: ~4 McPhail score

Structure (SMILES): CN(C)c1ccc([C@H]2C[C@]3(C)[C@@H](CC[C@]3(O)CCCO)[C@@H]3CCC4=CC(=O)CCC4=C32)cc1 [Onapristone, reference compound]
- RBA (%) GR (GR): 39%
- abortifacient activity ED50, rat (pregnant rats): 1.71* mg/animal/day
- RBA (%) PR [1]: 22%
- abortifacient activity ED50, guinea pig (pregnant guinea pigs): ca 3 mg/animal/day

Structure (SMILES): C#C[C@]1(O)CC[C@H]2[C@@H]3CCC4=Cc5oncc5C[C@]4(C)[C@H]3CC[C@@]21C [danazol]
- women with side effects (endometriosis): ≤ 85%

Structure (SMILES): NC[C@H]1CC[C@H](C(=O)O)CC1 [tranexamic acid]
- blood loss reduction (menorrhagia): 45%

Structure (SMILES): COC[C@]1(OC)CC[C@H]2[C@@H]3CCC4=CC(=O)CCC4=C3[C@@H](c3ccc(/C=N/OC(C)=O)cc3)C[C@@]21C [J 914, 4-[17β-Methoxy-17α-(methoxymethyl)-3-oxoestra-4,9-dien-11β-yl]benzaldehyd-(1E)-(O-acetyl)oxim]
- antiglucocorticoid activity compared to RU 486 [2]: markedly reduced
- uterine weights (cyclic guinea pigs): reduced uterine weights
- antiprogestagenic activity [3]: strong
